Test results from US10195181B2, “Carboxamide derivatives” (Novartis AG, priority 2014, dated 2019).

Target: Smurf-1 (Homo sapiens (Human), UniProt Q9HCE7)
Experiment: HECT E3 ligase autoubiquitinylation TR-FRET assay (Smurf-1)
Type: biochemical
From the text: To determine the HECT E3 ligase selectivity of the compounds, a panel of biochemical HECT E3 ligase autoubiquitinylation assays was employed (Smurf-1, Smurf-2, WWP1, WWP2, ITCH, Nedd4, Nedd4L and E6AP). The conjugation of ubiquitin to a protein substrate is a multistep process. In an initial ATP-requiring step, a thioester bond is formed between the carboxyl terminus of ubiquitin and an internal cystein residue of the ubiquitin-activating enzyme (E1). Activated ubiquitin is then transferred to a specific cystein residue of an ubiquitin-conjugating enzyme (E2). E2s donate ubiquitin to a HECT E3 ligase (E3) from which it is transferred to the substrate protein. HECT E3 ligases can auto-ubiquitinylate. This event is detected in the TR-FRET (Time-Resolved Fluorescence Resonance Energy Transfer) assay used in this panel. […] When these two fluorophores are brought together by a biomolecular interaction (in this case ubiquitinylation of the E3 ligase), a portion of the energy captured by the Cryptate during excitation is released through fluorescence emission at 620 nm, while the remaining energy is transferred to XL665. This energy is then released by XL665 as specific fluorescence at 665 nm. […]
After an incubation time of 45 min in the dark, the plates are transferred into the Pherastar fluorescence reader to measure the TR-FRET signal.

Smurf-1, sequence (Q9HCE7 whole entry): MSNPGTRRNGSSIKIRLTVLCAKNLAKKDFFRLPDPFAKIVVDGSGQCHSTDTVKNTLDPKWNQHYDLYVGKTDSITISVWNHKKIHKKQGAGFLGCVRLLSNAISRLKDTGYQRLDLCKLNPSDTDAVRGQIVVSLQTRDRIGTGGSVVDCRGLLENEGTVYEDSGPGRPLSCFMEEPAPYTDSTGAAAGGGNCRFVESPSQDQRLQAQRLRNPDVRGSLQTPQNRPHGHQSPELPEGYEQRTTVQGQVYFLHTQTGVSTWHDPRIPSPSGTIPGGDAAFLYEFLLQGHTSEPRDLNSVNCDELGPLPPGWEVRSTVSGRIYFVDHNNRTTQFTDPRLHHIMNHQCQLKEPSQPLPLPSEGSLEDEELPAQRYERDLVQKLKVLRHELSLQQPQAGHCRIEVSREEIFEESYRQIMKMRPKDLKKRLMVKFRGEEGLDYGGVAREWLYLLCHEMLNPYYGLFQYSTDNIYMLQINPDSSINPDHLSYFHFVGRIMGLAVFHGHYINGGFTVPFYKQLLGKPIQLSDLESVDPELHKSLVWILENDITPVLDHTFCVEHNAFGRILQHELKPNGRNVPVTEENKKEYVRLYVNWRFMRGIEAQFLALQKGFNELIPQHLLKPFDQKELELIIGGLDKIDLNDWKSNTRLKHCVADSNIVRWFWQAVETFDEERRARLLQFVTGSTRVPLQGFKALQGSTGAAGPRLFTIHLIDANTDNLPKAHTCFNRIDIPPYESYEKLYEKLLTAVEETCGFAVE

IC50: 980 nM
SMILES: Cc1c(C(=O)Nc2c(C)n(C)n(C(C)C)c2=O)noc1[C@@H]1CCC[C@H](C(C)(C)C)O1 (mixture of isomers) [Example 17, 5-((2R,6S)-6-(tert-butyl)tetrahydro-2H-pyran-2-yl)-N-(2-isopropyl-1,5-dimethyl-3-oxo-2,3-dihydro-1H-pyrazol-4-yl)-4-methylisoxazole-3-carboxamide and 5-((2S,6R)-6-(tert-butyl)tetrahydro-2H-pyran-2-yl)-N-(2-isopropyl-1,5-dimethyl-3-oxo-2,3-dihydro-1H-pyrazol-4-yl)-4-methylisoxazole-3-carboxamide]
